EPA's ToxRefDB 2

What was measured:
rat [1] = details: Prenatal developmental toxicity study, sprague dawley, Oral, Gavage/Intubation, dose end: 15 GD
rat [2] = details: Subchronic oral toxicity in rodents, sprague dawley, Feed, dose end: 90 day, group: systemic, systemic / clinical chemistry / cholesterol / cholesterol + systemic / in life observation / body weight / body weight + systemic / in life …
rabbit = details: Prenatal developmental toxicity study, new zealand white, Oral, Gavage/Intubation, dose end: 28 GD
rat [3] = details: Multigenerational reproductive toxicity study, sprague dawley, Oral, Feed, dose end: 2 generation
dog [4] = details: Subchronic oral toxicity in nonrodent, beagle, Feed, dose end: 103 day, group: systemic
rat [5] = details: Prenatal developmental toxicity study, other, Oral, Gavage/Intubation, dose end: 15 GD
rat [6] = details: Combined chronic toxicity/carcinogenicity, sprague dawley, Oral, Feed, dose end: 104 week, group: systemic
dog [7] = details: Subchronic oral toxicity in nonrodent, beagle, Capsule, dose end: 90 day, group: systemic
rat [8] = details: Multigenerational reproductive toxicity study, sprague dawley, Oral, Feed, dose end: 2 generation; remark: listed apart in the source
rat [9] = details: Subchronic oral toxicity in rodents, sprague dawley, Feed, dose end: 3 month, group: systemic
mouse = details: Carcinogenicity, cd1, Oral, Feed, dose end: 78 week, group: systemic
dog [10] = details: Chronic toxicity, beagle, Oral, Capsule, dose end: 52 week, group: systemic
[11] = group: developmental, developmental / developmental malformation / bone / enlarged fontanel + developmental / developmental malformation / bone / incomplete …
[12] = group: maternal, systemic / in life observation / body weight / body weight gain
[13] = group: maternal, systemic / in life observation / body weight / body weight gain + systemic / in life observation / body weight / body weight + systemic / in…
[14] = group: developmental, developmental / offspring survival late / lactation index / lactation index + developmental / offspring survival late / viability index / …
[15] = group: maternal, reproductive / offspring survival early / dead fetuses / dead fetuses
[16] = group: offspring, developmental / offspring survival late / viability index / viability index + systemic / in life observation / body weight / offspring (pup…
[17] = group: parental, systemic / in life observation / body weight / body weight gain + systemic / organ weight / liver / relative to body weight
[18] = systemic / clinical chemistry / albumin / albumin + systemic / clinical chemistry / calcium / calcium + systemic / clinical chemistry / …
[19] = group: developmental, developmental / developmental malformation / bone / full supernumerary
[20] = systemic / in life observation / body weight / body weight gain + systemic / pathology microscopic / liver / hypertrophy + systemic / …
[21] = systemic / clinical chemistry / alkaline phosphatase (alp/alk) / alkaline phosphatase (alp/alk) + systemic / clinical chemistry / calcium / …
[22] = systemic / clinical chemistry / alkaline phosphatase (alp/alk) / alkaline phosphatase (alp/alk) + systemic / organ weight / liver / absolute…
[23] = group: offspring, systemic / in life observation / body weight / offspring (pup) weight
[24] = group: parental, systemic / in life observation / body weight / body weight + systemic / in life observation / food consumption / food consumption + systemic…
[25] = systemic / clinical chemistry / cholesterol / cholesterol + systemic / clinical chemistry / lipids / phospholipids + systemic / hematology…
[26] = systemic / hematology / platelet / platelet + systemic / clinical chemistry / triglycerides / triglycerides + systemic / clinical chemistry…
[27] = systemic / organ weight / liver / absolute + systemic / organ weight / liver / relative to body weight + systemic / clinical chemistry / …

CCNS(=O)(=O)C(F)(F)C(F)(F)C(F)(F)C(F)(F)C(F)(F)C(F)(F)C(F)(F)C(F)(F)F [Sulfluramid]
LEL (rat [1]; [11]): 13.3 mg/kg/day | LOAEL (rat [1]; [11]): 13.3 mg/kg/day | NEL (rat [1]; [11]): 3.3 mg/kg/day | NOAEL (rat [1]; [11]): 3.3 mg/kg/day | LEL (rat [1]; [12]): 3.3 mg/kg/day | LOAEL (rat [1]; [12]): 3.3 mg/kg/day | NEL (rat [1]; [13]): 0.8 mg/kg/day | NOAEL (rat [1]; [13]): 0.8 mg/kg/day | LEL (rat [2]): 2.5 mg/kg/day | LOAEL (rat [2]): 2.5 mg/kg/day | NEL (rat [2]): 0.5 mg/kg/day | NOAEL (rat [2]): 0.5 mg/kg/day | LEL (rabbit; [14]): 0.3 mg/kg/day | LOAEL (rabbit; [14]): 0.3 mg/kg/day | NEL (rabbit; [14]): < 0.3 mg/kg/day | NOAEL (rabbit; [14]): < 0.3 mg/kg/day | LEL (rabbit; [15]): 0.3 mg/kg/day | LOAEL (rabbit; [15]): 0.3 mg/kg/day | NEL (rabbit; [15]): < 0.3 mg/kg/day | NOAEL (rabbit; [15]): < 0.3 mg/kg/day | LEL (rat [3]; [16]): 1.34 mg/kg/day | LOAEL (rat [3]; [16]): 1.34 mg/kg/day | NEL (rat [3]; [16]): 0.45 mg/kg/day | NOAEL (rat [3]; [16]): 0.45 mg/kg/day | LEL (rat [3]; [17]): 1.34 mg/kg/day | LOAEL (rat [3]; [17]): 1.34 mg/kg/day | NEL (rat [3]; [17]): 0.45 mg/kg/day | NOAEL (rat [3]; [17]): 0.45 mg/kg/day | LOAEL (dog [4]; [18]): > 23.2 mg/kg/day | NOAEL (dog [4]; [18]): ≥ 23.2 mg/kg/day | LEL (dog [4]; systemic / organ weight / liver / relative to body weight + systemic / clinical chemistry / calcium / calcium): 2.52 mg/kg/day

CC(C)(C)[C@H](O)/C(=C\c1ccc(Cl)cc1)n1cncn1 [Uniconazole-P]
LEL (rat [5]; [19]): 25 mg/kg/day | LOAEL (rat [5]; [19]): 25 mg/kg/day | NEL (rat [5]; [19]): 5 mg/kg/day | NOAEL (rat [5]; [19]): 5 mg/kg/day | LEL (rat [5]; [12]): 25 mg/kg/day | LOAEL (rat [5]; [12]): 25 mg/kg/day | NEL (rat [5]; [12]): 5 mg/kg/day | NOAEL (rat [5]; [12]): 5 mg/kg/day | LOAEL (rat [6]; [20]): 39.4 mg/kg/day | NOAEL (rat [6]; [20]): 7.78 mg/kg/day | LEL (rat [6]; systemic / pathology microscopic / liver / hypertrophy + systemic / pathology microscopic / liver / vacuolization): 7.78 mg/kg/day | NEL (rat [6]; systemic / pathology microscopic / liver / hypertrophy + systemic / pathology microscopic / liver / vacuolization + systemic / in life …): 1.48 mg/kg/day | NEL (dog [7]; [21]): 5 mg/kg/day | NOAEL (dog [7]; [21]): 5 mg/kg/day | LEL (dog [7]; [22]): 20 mg/kg/day | LOAEL (dog [7]; [22]): 20 mg/kg/day | LEL (rat [8]; [23]): 75 mg/kg/day | LOAEL (rat [8]; [23]): 75 mg/kg/day | NEL (rat [8]; [23]): 7.5 mg/kg/day | NOAEL (rat [8]; [23]): 7.5 mg/kg/day | LOAEL (rat [8]; [24]): 75 mg/kg/day | NEL (rat [8]; [24]): 0.75 mg/kg/day | NOAEL (rat [8]; [24]): 7.5 mg/kg/day | LEL (rat [8]; group: parental, systemic / organ weight / liver / nos): 7.5 mg/kg/day | LOAEL (rat [9]; [25]): 100 mg/kg/day | NOAEL (rat [9]; [25]): 10 mg/kg/day | LEL (rat [9]; [26]): 3 mg/kg/day | NEL (rat [9]; [26]): < 3 mg/kg/day | NEL (mouse; systemic / pathology microscopic / liver / adenoma + systemic / pathology microscopic / liver / adenoma/carcinoma combined + systemic / in …): 225 mg/kg/day | LOAEL (mouse; systemic / pathology microscopic / liver / hypertrophy + systemic / pathology microscopic / liver / inflammation + systemic / pathology …): 225 mg/kg/day | NOAEL (mouse; systemic / pathology microscopic / liver / hypertrophy + systemic / pathology microscopic / liver / necrosis + systemic / pathology …): 30 mg/kg/day | NEL (dog [10]; systemic / clinical chemistry / alkaline phosphatase (alp/alk) / alkaline phosphatase (alp/alk) + systemic / organ weight / thymus / …): 2 mg/kg/day | LOAEL (dog [10]; systemic / organ weight / liver / absolute + systemic / organ weight / liver / relative to body weight): 20 mg/kg/day | LEL (dog [10]; [27]): 20 mg/kg/day | NOAEL (dog [10]; [27]): 2 mg/kg/day
